The results in this text go back to ChEMBL document CHEMBL4673200, “Hydride-induced Meisenheimer complex formation reflects activity of nitro aromatic anti-tuberculosis compounds” (RSC Med Chem, 2021).

The source made the active and inactive calls. No cut-off for these calls is given here.

Assay [1] concerns Mycobacterium tuberculosis variant bovis BCG. The assay is described as follows: Inhibition of Mycobacterium bovis BCG QcrB assessed as decrease in ATP level at 0.01 to 10 uM incubated for 20 hrs by Bactiter-Glo microbial cell viability assay. As to conditions: dose 0.01-10 µM.
For assay [2] the test system is unchanged. As to the kind of experiment: Inhibition of Mycobacterium bovis BCG QcrB harboring CydAB deletion mutant assessed as decrease in ATP level at 0.01 to 10 uM incubated for 20 hrs by Bactiter-Glo microbial cell viability assay. As to conditions: dose 0.01-10 µM.
Assay [3] shares this test system. As to the kind of experiment: Inhibition of Mycobacterium bovis BCG QcrB assessed as decrease in ATP level at 10 uM incubated for 20 hrs by Bactiter-Glo microbial cell viability assay.
The test system is the same in assay [4]. As to the kind of experiment: Inhibition of Mycobacterium bovis BCG QcrB harboring CydAB deletion mutant assessed as decrease in ATP level at 10 uM incubated for 20 hrs by Bactiter-Glo microbial cell viability assay.

Consider `CCc1nc2ccc(Cl)cn2c1C(=O)NCc1ccc(N2CCC(c3ccc(OC(F)(F)F)cc3)CC2)cc1` [TELACEBEC], for which the inhibition result in assay [1] and in assay [2] was “Active” throughout.

On to `O=C(NCc1ccc(N2CCC(c3ccc(OC(F)(F)F)cc3)CC2)cc1)c1sc2c([N+](=O)[O-])cc(C(F)(F)F)cc2[n+]1[O-]`, for which the inhibition entry in assay [3] and in assay [4] was “Active” throughout.

For `O=C(NCc1ccc(N2CCC(c3ccc(OC(F)(F)F)cc3)CC2)cc1)c1nc2cc(C(F)(F)F)cc([N+](=O)[O-])c2s1`, the inhibition result in assay [3] and in assay [4] was “Active” each time.

As for `COc1nc2ccc(Br)cc2cc1[C@@H](c1ccccc1)[C@@](O)(CCN(C)C)c1cccc2ccccc12`, the inhibition entry in assay [1] and in assay [2] was “Active” each time.
